The text below walks through data of ChEMBL document CHEMBL6115011, “Optimizing biofilm inhibitors: Balancing activity and toxicity in 2N-aminated 5-aryl-2-aminoimidazoles” (Bioorg Med Chem, 2025).

For data set [1], the system named is Escherichia coli. As to the kind of experiment: Antibacterial activity against Escherichia coli TG1 at 25 degree C measured after 24 hrs by crystal violet staining based microplate reader analysis. Format: functional, organism-based. As to conditions: TG1, 24 h.
Data set [2] is described as follows: Genotoxicity in human CAPAN-1 cells at 100 to 400 uM measured after 3 hrs by Western blot analysis. The class given is toxicity, cell-based. As to conditions: capan-1, 3 h, dose 100-400 µM. For orientation: A western blot detects proteins with antibodies after separation by electrophoresis.
A short description of data set [3]: Cytotoxicity against human PBMC cells assessed as survival rate at 25 to 100 uM measured after 72 hrs by trypan blue staining based assay. The class given is toxicity, cell-based. As to conditions: dose 25-100 µM.
For data set [4], the system named is Escherichia coli. The experiment in a line: Inhibition of biofilm formation in Escherichia coli TG1 at 25 degree C measured after 24 hrs by crystal violet staining based microplate reader analysis. Format: functional, organism-based. As to conditions: TG1, 24 h.
The test system of data set [5] is Staphylococcus aureus. The experiment in a line: Antibacterial activity against methicillin-resistant Staphylococcus aureus at 25 degree C measured after 48 hrs by crystal violet staining based microplate reader analysis. The class given is functional, organism-based.
Data set [6] has as its system Pseudomonas aeruginosa. As to the kind of experiment: Inhibition of biofilm formation in Pseudomonas aeruginosa PA14 at 25 degree C measured after 24 hrs by crystal violet staining based analysis. The class given is functional, organism-based. As to conditions: PA14, 24 h.
Data set [7] deals with Staphylococcus aureus. As to the kind of experiment: Inhibition of biofilm formation in Staphylococcus aureus SH1000 at 25 degree C measured after 48 hrs by crystal violet staining based analysis. As to conditions: SH1000, 48 h. Format: functional, organism-based.
The subject of data set [8] is Staphylococcus epidermidis. As to the kind of experiment: Inhibition of biofilm formation in Staphylococcus epidermidis at 25 degree C measured after 48 hrs by crystal violet staining based analysis. Format: functional, organism-based.
Data set [9] relates to Staphylococcus aureus. The experiment in a line: Antibacterial activity against Staphylococcus aureus SH1000 at 25 degree C measured after 48 hrs by crystal violet staining based microplate reader analysis. As to conditions: SH1000, 48 h. The class given is functional, organism-based.
Data set [10] relates to Staphylococcus aureus. The experiment in a line: Inhibition of biofilm formation in methicillin-resistant Staphylococcus aureus at 25 degree C measured after 48 hrs by crystal violet staining based analysis. Format: functional, organism-based.
A short description of data set [11]: Cytotoxicity against human PBMC cells assessed as survival rate at 400 uM measured after 72 hrs by trypan blue staining based assay (reference value: 48%). The class given is toxicity, cell-based. As to conditions: read-out: Survival.
Data set [12] relates to Pseudomonas aeruginosa. As to the kind of experiment: Antibacterial activity against Pseudomonas aeruginosa PA14 at 25 degree C measured after 24 hrs by crystal violet staining based microplate reader analysis. As to conditions: PA14, 24 h. Format: functional, organism-based.
Data set [13] in a line: Toxicity in Caenorhabditis elegans CB5612 by wide field microscopy based analysis.
Data set [14] in a line: Genotoxicity in human CAPAN-1 cells assessed as fold change at 400 uM measured after 3 hrs by Western blot analysis. Format: toxicity, cell-based. As to conditions: capan-1, 3 h.
A short description of data set [15]: Cytotoxicity against human PBMC cells assessed as survival rate at 400 uM measured after 72 hrs by trypan blue staining based assay relative to control. Format: toxicity, cell-based. As to conditions: read-out: Survival.
Data set [16] in a line: Cytotoxicity against human PBMC cells assessed as survival rate at 25 uM measured after 72 hrs by trypan blue staining based assay relative to control. Format: toxicity, cell-based. As to conditions: read-out: Survival.
Data set [17] is described as follows: Cytotoxicity against human PBMC cells assessed as survival rate at 100 uM measured after 72 hrs by trypan blue staining based assay relative to control. Format: toxicity, cell-based. As to conditions: read-out: Survival.
In data set [18] the test system is HCT-116. The experiment in a line: Cytotoxicity against human HCT-116 cells assessed as inhibition of cell growth measured after 72 hrs by CellTiter 96 Aqueous One Solution Cell Proliferation Assay. Format: functional.
The nature of data set [19]: Cytotoxicity against human DND41 cells assessed as inhibition of cell growth measured after 72 hrs by CellTiter 96 Aqueous One Solution Cell Proliferation Assay. The class given is functional.
Data set [20] deals with HL-60. As to the kind of experiment: Cytotoxicity against human HL-60 cells assessed as inhibition of cell growth measured after 72 hrs by CellTiter 96 Aqueous One Solution Cell Proliferation Assay. The class given is functional.
The test system of data set [21] is K562. The experiment in a line: Cytotoxicity against human K562 cells assessed as inhibition of cell growth measured after 72 hrs by CellTiter 96 Aqueous One Solution Cell Proliferation Assay. The class given is functional.
The subject of data set [22] is CAPAN-1. As to the kind of experiment: Cytotoxicity against human CAPAN-1 cells assessed as inhibition of cell growth measured after 72 hrs by CellTiter 96 Aqueous One Solution Cell Proliferation Assay. Format: functional.
Data set [23] relates to NCI-H460. The experiment in a line: Cytotoxicity against human NCI-H460 cells assessed as inhibition of cell growth measured after 72 hrs by CellTiter 96 Aqueous One Solution Cell Proliferation Assay. Format: functional.
The test system of data set [24] is Staphylococcus epidermidis. As to the kind of experiment: Antibacterial activity against Staphylococcus epidermidis at 25 degree C measured after 48 hrs by crystal violet staining based microplate reader analysis. Format: functional, organism-based.
Data set [25] has as its system LN-229. The experiment in a line: Cytotoxicity against human LN-229 cells assessed as inhibition of cell growth measured after 72 hrs by CellTiter 96 Aqueous One Solution Cell Proliferation Assay. Format: functional.
The subject of data set [26] is Z-138. The experiment in a line: Cytotoxicity against human Z138 cells assessed as inhibition of cell growth measured after 72 hrs by CellTiter 96 Aqueous One Solution Cell Proliferation Assay. Format: functional.
Data set [27] can be described thus: Cytotoxicity against human PBMC cells assessed as survival rate at 25 uM measured after 72 hrs by trypan blue staining based assay (reference value: 94.0%). The class given is toxicity, cell-based. As to conditions: read-out: Survival.

As to `NCCCCNc1ncc(-c2ccccc2)[nH]1`, the IC50 in data set [1] was 56.6 µM; in data set [4], 35.3 µM; in data set [5], 578 µM; in data set [6], 17 µM; in [7], 155 µM; in [8], 33.3 µM. Also, the IC50 in data set [9] stood at 287 µM; in [10] it was 138 µM; in data set [12] it was 85.8 µM. Besides, the Activity result in [2] and in [3] was “Non-toxic” in each case. Further, in data set [11], the viability at 72 h, 400 µM came out at 9%.
`NCCCCNc1ncc(-c2ccc(F)cc2)[nH]1`: the IC50 in data set [1] was 31.5 µM; in data set [4], 14.9 µM; in [5], 217 µM; in data set [6] it was 4.5 µM; in data set [7], 167 µM; in data set [8] it was 6.1 µM. The IC50 in data set [9] was found to be 176 µM; in [10], 98.1 µM; in data set [12], 34.6 µM. Besides, in data set [13], the Activity result was “Toxic”.
On to `NCCCCCCCCNc1ncc(-c2ccc(F)cc2)[nH]1`, for which the IC50 in data set [1] was determined as 21.6 µM; in [4] it was 12.8 µM; in data set [5], 79.9 µM; in data set [6], 13.1 µM; in data set [7] it was 47.6 µM; in data set [8] it was 15.7 µM. Moreover, the IC50 in data set [9] came out at 90.7 µM; in data set [10] it was 36.8 µM; in data set [12] it was 26.6 µM. Besides, in data set [14], the “fold change (FC)” value turned out to be 2.35. In data set [15], the viability at 72 h, 400 µM turned out to be 22.9%. Also, the Activity entry in [13] is on record as “Toxic”. Further, the viability at 72 h, 25 µM in [16] worked out at 56.4%. For the same molecule, the viability at 72 h, 100 µM in data set [17] was determined as 70%. Besides, the CC50 in data set [18] came to 29.9 µM; in data set [19], 46.4 µM.
With `NCCCCCCCCNc1ncc(-c2ccccc2)[nH]1`, the half-inhibitory concentration (IC50) in data set [1] came to 15.6 µM; in [4], 13.5 µM; in data set [5] it was 45.4 µM; in data set [6] it was 12.7 µM; in data set [7], 21.1 µM; in data set [8] it was 3.5 µM. Also, the IC50 in [9] was determined as 40.6 µM; in data set [10] it was 35.3 µM; in data set [24] it was 20.4 µM; in data set [12] it was 21.1 µM. In addition, the CC50 was determined as 30 µM in data set [20]; 30 µM in [21] (72 h); 57.4 µM in data set [21] (Homo sapiens, K562, 72 h); 30 µM in data set [22]; 30 µM in [23]; 30 µM in data set [25] (72 h). Besides, the CC50 was found to be 52.9 µM in [25] (Homo sapiens, LN-229, 72 h); 30 µM in data set [26] (72 h); 49.7 µM in data set [26] (Homo sapiens, Z-138, 72 h); 58.3 µM in data set [19]. The Activity result in data set [2] is “Non-toxic”. Besides, the viability at 72 h, 100 µM in data set [17] is less than 50%.
Turning to `NCCCCCCNc1ncc(-c2ccccc2)[nH]1`, the IC50 worked out at 55.3 µM in data set [1]; 26.5 µM in data set [4]; 206 µM in [5]; 23.4 µM in data set [6]; 95.6 µM in data set [7]; 29.2 µM in [8]. The IC50 in data set [9] came to 186 µM; in [10], 62.7 µM; in data set [24] it was 164 µM; in data set [12] it was 73.4 µM. Moreover, in [2], the Activity result is “Non-toxic”. For the same molecule, the viability at 72 h, 400 µM in data set [15] was 2.9%. Also, in [27], the viability at 72 h, 25 µM is 78.6%. In addition, the viability at 72 h, 100 µM in data set [17] came to 12.9%.
Take `NCCCCCCCCNc1ncc(-c2ccc(Br)cc2)[nH]1`: the IC50 in data set [1] is 17.6 µM; in data set [4], 6.8 µM; in [5], 61.8 µM; in [6], 7.8 µM; in data set [7] it was 46.1 µM; in data set [8], 12.6 µM. In addition, the IC50 was 36.7 µM in data set [9], 26.3 µM in data set [10] and 14.5 µM in [12]. For the same molecule, the CC50 in data set [20] turned out to be 30 µM; in [21] (Homo sapiens, K562, 72 h), 30 µM; in data set [22] it was 30 µM; in data set [23], 30 µM; in data set [25] (Homo sapiens, LN-229, 72 h), 30 µM; in data set [26] (Homo sapiens, Z-138, 72 h), 30 µM. Also, the viability at 72 h, 400 µM in [15] was found to be 30.2%. Moreover, in data set [13], the Activity entry is given as “Toxic”. The viability at 72 h, 25 µM in data set [16] was determined as 79.8%. Also, the viability at 72 h, 100 µM in data set [17] worked out at 94%.

For orientation: IC50 means the concentration that gives 50% inhibition. Lower therefore signals higher potency. A word on the CC50: it is the concentration that lowers cell viability or growth by half.
